# From patent US9271993B2, “Treatment of bacterial infectious diseases” (priority 2010, dated 2016)
# Read-outs that look alike come from different tables or passages of the source.
# How the values were obtained:
# [1] = General toxicity in guinea pigs; assay type: in vivo; conditions: systemic, once daily for 14 days, monitored additional 14 days
# Source text: Guinea pigs received a systemic application of aminoglycosides once daily in the dosing indicated in Table 9 for 14 days and were then monitored for an additional 14 days.
# [2] = test system: clinical methicillin resistant Staphylococcus aureus (MRSA) isolates; experiment: MIC against clinical MRSA isolates, LB microdilution assay
# Protocol: Activity was assessed by determination of minimal inhibitory concentrations (MIC), as described in Pfister et al., Antimicrob. […] Cultures from single colonies were grown in LB medium and used for MIC tests in a microtiter plate format. Starting cultures contained 200 μl of bacterial cells at an optical density of 0.025 at 600 nm, and the respective drug was added in twofold series of dilution.
# E. coli = experiment: MIC against gram-negative bacteria; assay type: cell-based
# Source text: Agents Chemother. 2003, 47:1496-1502.
# mitohybrid ribosomes = experiment: Ribosomal drug susceptibility (MIC) of recombinant bacteria; parameters: MIC, mitohybrid ribosomes: unit not given beside the values; conditions: Table 7; 72 h incubation
# [3] = test system: Cochlear explants from newborn mice; experiment: Cochleatoxicity in vitro, hair cell loss in cochlear explants; assay type: cell-based
# Protocol: FIG. 1: Cochleatoxicity in vitro
# (a) Dose-response relationship of drug-induced hair cell loss in cochlear explants. Hair cell loss was quantified along the entire length of the explant and plotted against drug concentration. %=% outer hair cells missing.
# Cochlear explants from newborn mice were treated with 0.5 mM aminoglycoside compound for 24 h; subsequently hair cell damage was assessed by epifluorescence microscopy.
# cytohybrid ribosomes = experiment: Ribosomal drug susceptibility (MIC) of recombinant bacteria; parameters: MIC, cytohybrid ribosomes: unit not given beside the values; conditions: Table 7; 72 h incubation
# bacterial ribosomes = experiment: as above; parameters: MIC, bacterial ribosomes: unit not given beside the values; conditions: Table 7; 72 h incubation
# M. avium-intracellulare = experiment: Drug susceptibility of non-tuberculous slow-growing mycobacteria, MGIT960; assay type: cell-based
# M. kansasii = experiment: as above; assay type: cell-based
# M. massiliense = experiment: MIC against non-tuberculous rapidly-growing mycobacteria, microdilution; assay type: cell-based; conditions: Mycobacteroides abscessus, read-out: minimal inhibitory concentration (MIC)
# Protocol: (§1) Activity of apramycin was assessed in standard microdilution assays and is expressed as minimal inhibitory concentration (MIC) in μg/ml.
# M. bolletii = experiment: as above; assay type: cell-based; conditions: Mycobacteroides abscessus, read-out: minimal inhibitory concentration (MIC)
# Protocol: as §1
# M. abscessus = experiment: as above; assay type: cell-based; conditions: Mycobacteroides abscessus; strain 500039/08 M. abscessus; read-out: minimal inhibitory concentration (MIC)
# Protocol: as §1
compound,measurement,setting,value
Gentamicin,observations (general toxicity),[1]; 120 mg/kg base,normal weight gain
same,observations (general toxicity),[1]; 140 mg/kg base,significant weight loss
same,observations (general toxicity),[1]; 160 mg/kg base,2 out of 3 died
same,MIC,"[2]; MRSA AG038, strain 70-26S Gm^S",0.5 µg/mL
same,MIC,"[2]; MRSA AG040, strain 87-26S Gm^S",0.5 µg/mL
same,MIC,"[2]; MRSA AG041, strain 98-25S Gm^S",0.5 µg/mL
same,MIC,"[2]; MRSA AG042, strain 101-06R Gm^R",32 to 64 µg/mL
same,MIC,"[2]; MRSA AG043, strain 01-08R Gm^R",32 to 64 µg/mL
same,MIC,"[2]; MRSA AG044, strain 07-12R Gm^R",16 µg/mL
same,MIC,"[2]; MRSA AG045, strain 08-12R Gm^R",16 µg/mL
same,MIC,"[2]; MRSA AG046, strain 12-06R Gm^R",≧256 mg/l
same,MIC,"[2]; MRSA AG047, strain 18-06R Gm^R",≧256 mg/l
same,MIC,"[2]; MRSA AG048, strain 20-06R Gm^R",≧256 mg/l
same,MIC,"[2]; MRSA AG049, strain 23-12R Gm^R",16 µg/mL
same,MIC,"[2]; MRSA AG050, strain 31-06R Gm^R",128 µg/mL
same,MIC,"[2]; MRSA AG051, strain 36-06R Gm^R",128 µg/mL
same,MIC,"[2]; MRSA AG052, strain 53-14I Gm^R",16 to 32 µg/mL
same,MIC,"[2]; MRSA AG053, strain 56-06R Gm^R",64 µg/mL
same,MIC,"E. coli; E. coli AG01, clin. isol. (Gm^S)",4 to 8 µg/mL
same,MIC,"E. coli; E. coli AG02, clin. isol (Gm^S)",2 µg/mL
same,MIC,"E. coli; E. coli AG03, clin. isol (Gm^R)",256 to 512 µg/mL
same,MIC,"E. coli; E. coli AG06, BM13",0.5 µg/mL
same,MIC,"E. coli; E. coli AG08, BM13/pIP055, resistance mechanism ANT(2″)",16 µg/mL
same,MIC,"E. coli; E. coli AG09, AAC(6′)-1B, resistance mechanism AAC(6′)",8 to 16 µg/mL
same,MIC,"E. coli; E. coli AG36, HB101/pAT197, resistance mechanism ANT(4′)",0.5 µg/mL
same,MIC,"E. coli; E. coli AG37, HB101/pAG21-1, resistance mechanism APH(3′)",0.25 µg/mL
same,"MIC, mitohybrid ribosomes",mitohybrid ribosomes,128
same,Hair cell count,"[3]; 0.5 mM aminoglycoside for 24 h, epifluorescence microscopy",almost all hair cells (inner and outer) missing
same,inner and outer hair cells missing / lost,"[3]; 0.5 mM, FIG. 1",> 80%
same,"MIC, cytohybrid ribosomes",cytohybrid ribosomes,1024
same,"MIC, bacterial ribosomes",bacterial ribosomes,1
NCC[C@H](O)C(=O)N[C@@H]1C[C@H](N)[C@@H](O[C@H]2O[C@H](CN)[C@@H](O)[C@H](O)[C@H]2O)[C@H](O)[C@H]1O[C@H]1O[C@H](CO)[C@@H](O)[C@H](N)[C@H]1O [Amikacin],MIC,"[2]; MRSA AG048, strain 20-06R Gm^R",256 µg/mL
same,MIC,"[2]; Staphylococcus aureus, MRSA",256 µg/mL
same,MIC,"[2]; Staphylococcus aureus, MRSA, MRSA AG038, strain 70-26S Gm^S",4 µg/mL
same,MIC,"[2]; Staphylococcus aureus, MRSA, MRSA AG040, strain 87-26S Gm^S",16 to 32 µg/mL
same,MIC,"[2]; Staphylococcus aureus, MRSA, MRSA AG041, strain 98-25S Gm^S",4 to 8 µg/mL
same,MIC,"[2]; Staphylococcus aureus, MRSA, MRSA AG042, strain 101-06R Gm^R",16 µg/mL
same,MIC,"[2]; Staphylococcus aureus, MRSA, MRSA AG043, strain 01-08R Gm^R",8 to 16 µg/mL
same,MIC,"[2]; Staphylococcus aureus, MRSA, MRSA AG044, strain 07-12R Gm^R",4 µg/mL
same,MIC,"[2]; Staphylococcus aureus, MRSA, MRSA AG045, strain 08-12R Gm^R",4 µg/mL
same,MIC,"[2]; Staphylococcus aureus, MRSA, MRSA AG046, strain 12-06R Gm^R",32 µg/mL
same,MIC,"[2]; Staphylococcus aureus, MRSA, MRSA AG049, strain 23-12R Gm^R",8 to 16 µg/mL
same,MIC,"[2]; Staphylococcus aureus, MRSA, MRSA AG050, strain 31-06R Gm^R",16 µg/mL
same,MIC,"[2]; Staphylococcus aureus, MRSA, MRSA AG051, strain 36-06R Gm^R",8 to 16 µg/mL
same,MIC,"[2]; Staphylococcus aureus, MRSA, MRSA AG052, strain 53-14I Gm^R",16 µg/mL
same,MIC,"[2]; Staphylococcus aureus, MRSA, MRSA AG053, strain 56-06R Gm^R",8 µg/mL
same,Activity (resistant/susceptible),"M. avium-intracellulare; strain 182034/06 M. avium-intracellulare, 1 μg/ml",R
same,Activity (resistant/susceptible),"M. avium-intracellulare; strain 182034/06 M. avium-intracellulare, 4 μg/ml",S
same,Activity (resistant/susceptible),"M. avium-intracellulare; strain 182034/06 M. avium-intracellulare, 10 μg/ml",S
same,Activity (resistant/susceptible),"M. avium-intracellulare; strain 182124/07 M. avium-intracellulare, 1 μg/ml",R
same,Activity (resistant/susceptible),"M. avium-intracellulare; strain 182124/07 M. avium-intracellulare, 4 μg/ml",S
same,Activity (resistant/susceptible),"M. avium-intracellulare; strain 182124/07 M. avium-intracellulare, 10 μg/ml",S
same,Activity (resistant/susceptible),"M. avium-intracellulare; strain 182550/07 M. avium-intracellulare, 1 μg/ml",R
same,Activity (resistant/susceptible),"M. avium-intracellulare; strain 182550/07 M. avium-intracellulare, 4 μg/ml",S
same,Activity (resistant/susceptible),"M. avium-intracellulare; strain 182550/07 M. avium-intracellulare, 10 μg/ml",S
same,Activity (resistant/susceptible),"M. kansasii; strain 177227/06 M. kansasii, 1 μg/ml",R
same,Activity (resistant/susceptible),"M. kansasii; strain 177227/06 M. kansasii, 4 μg/ml",S
same,Activity (resistant/susceptible),"M. kansasii; strain 177227/06 M. kansasii, 10 μg/ml",S
same,Activity (resistant/susceptible),"M. kansasii; strain 180235/06 M. kansasii, 1 μg/ml",R
same,Activity (resistant/susceptible),"M. kansasii; strain 180235/06 M. kansasii, 4 μg/ml",S
same,Activity (resistant/susceptible),"M. kansasii; strain 180235/06 M. kansasii, 10 μg/ml",S
same,MIC,M. massiliense; strain 177217/10 M. massiliense,8 µg/mL
same,MIC,M. massiliense; strain 186139/07 M. massiliense,4 µg/mL
same,MIC,M. massiliense; strain 500044/09 M. massiliense,1 µg/mL
same,MIC,M. bolletii; strain 179639/10 M. bolletii,8 µg/mL
same,MIC,M. bolletii; strain 181739/08 M. bolletii,4 µg/mL
same,MIC,M. bolletii; strain 183177/08 M. bolletii,8 µg/mL
same,MIC,M. abscessus,1 µg/mL
